Reference: patent US5656603A (Loyola University of Chicago, priority 1995, dated 1997)
Like-named read-outs stand apart in the source and are kept apart here.

How the values were obtained:
[1] = molecular target: T1, partially purified human lung membrane-bound aminopeptidase P (Homo sapiens, UniProt O43895); assay: Aminopeptidase P inhibition, release of arginine from Arg-Pro-Pro (fluorescent assay); format: biochemical
T1 construct: from tissue; host or cells: human lung microsomes
Experimental: (§1) The IC50 of the compound of the present invention in relation to aminopeptidase P was also determined. […] The specificity of the compound of the present invention for other aminopeptidases was similarly determined as described in the Experimental Procedures herein.
(§2) Enzymes--Membrane-bound aminopeptidase P was purified to homogeneity from bovine lung (14) and from rat lung. Partially purified membrane-bound aminopeptidase P from human lung was obtained by treatment of lung microsomes with phosphatidylinositol-specific phospholipase C (B. thuringiensis) (ICN, Costa Mesa, Calif.) followed by centrifugation as described previously (14). Membrane dipeptidase was purified from rat lung microsomes (manuscript in preparation). Recombinant E. coli aminopeptidase P (22) and purified lamb kidney prolyl oligopeptidase (23) were generally supplied by Dr. Tadashi Yoshimoto (Nagasaki University). Purified porcine kidney prolidase and purified porcine kidney aminopeptidase M was obtained from Sigma (St. Louis, Mo.).
(§3) Enzyme Kinetics--Aminopeptidase P activity was determined by measuring the release of arginine from Arg-Pro-Pro by a fluorescent assay described previously (14). […] Each mixture was run in duplicate. Aliquots were removed from each incubation mixture at various times and assayed for the amount of arginine present to determine the reaction velocity. In general, reaction velocities were calculated from data representing less than 20% cleavage of substrate. Ki and Ki ' (=αKi) were determined from plots of 1/v versus concentration of inhibitor "i" (26) and S/v versus concentration of inhibitor "i" (27), respectively. These parameters were also determined from the slope replot and 1/v-intercept replot, respectively, of the 1/v versus 1/S plot (28). […] The values from the two treatments of the data were averaged for each experiment. Experiments for each enzyme preparation were performed twice and the results averaged.

[2] = molecular target: T2, purified rat lung membrane-bound aminopeptidase P (Rattus norvegicus, UniProt Q99MA2); assay: as above; format: biochemical
T2 construct: from tissue; host or cells: rat lung
T2 sequence (Q99MA2 23-674): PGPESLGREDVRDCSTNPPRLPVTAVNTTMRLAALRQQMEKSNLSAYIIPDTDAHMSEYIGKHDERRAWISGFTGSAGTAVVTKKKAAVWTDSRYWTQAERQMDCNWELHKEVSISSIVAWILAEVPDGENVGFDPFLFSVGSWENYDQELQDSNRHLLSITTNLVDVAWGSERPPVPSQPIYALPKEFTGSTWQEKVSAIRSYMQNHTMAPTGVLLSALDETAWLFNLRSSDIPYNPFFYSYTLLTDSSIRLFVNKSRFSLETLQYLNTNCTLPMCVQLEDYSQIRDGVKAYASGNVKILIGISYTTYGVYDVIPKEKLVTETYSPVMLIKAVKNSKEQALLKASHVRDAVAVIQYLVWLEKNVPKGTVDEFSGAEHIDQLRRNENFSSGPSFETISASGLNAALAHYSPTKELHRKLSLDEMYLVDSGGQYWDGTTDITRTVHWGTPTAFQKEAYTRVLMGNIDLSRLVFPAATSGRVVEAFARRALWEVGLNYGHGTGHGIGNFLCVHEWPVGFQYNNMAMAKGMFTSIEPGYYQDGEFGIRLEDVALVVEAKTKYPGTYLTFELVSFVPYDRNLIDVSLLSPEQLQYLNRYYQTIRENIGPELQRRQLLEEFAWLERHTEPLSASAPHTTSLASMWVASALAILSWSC
Experimental: as §1, §2, §3

[3] = molecular target: T3, aminopeptidase A (EC 3.4.11.7) (Rattus norvegicus, UniProt P50123); assay: Specificity of apstatin: aminopeptidase A; format: biochemical; details: rat lung microsomes; α-Glu-β-Na, pH 6.8, HPLC-1
T3 construct: aminopeptidase A (EC 3.4.11.7) (rat lung microsomes); from tissue; host or cells: rat lung microsomes
T3 sequence (P50123 whole entry): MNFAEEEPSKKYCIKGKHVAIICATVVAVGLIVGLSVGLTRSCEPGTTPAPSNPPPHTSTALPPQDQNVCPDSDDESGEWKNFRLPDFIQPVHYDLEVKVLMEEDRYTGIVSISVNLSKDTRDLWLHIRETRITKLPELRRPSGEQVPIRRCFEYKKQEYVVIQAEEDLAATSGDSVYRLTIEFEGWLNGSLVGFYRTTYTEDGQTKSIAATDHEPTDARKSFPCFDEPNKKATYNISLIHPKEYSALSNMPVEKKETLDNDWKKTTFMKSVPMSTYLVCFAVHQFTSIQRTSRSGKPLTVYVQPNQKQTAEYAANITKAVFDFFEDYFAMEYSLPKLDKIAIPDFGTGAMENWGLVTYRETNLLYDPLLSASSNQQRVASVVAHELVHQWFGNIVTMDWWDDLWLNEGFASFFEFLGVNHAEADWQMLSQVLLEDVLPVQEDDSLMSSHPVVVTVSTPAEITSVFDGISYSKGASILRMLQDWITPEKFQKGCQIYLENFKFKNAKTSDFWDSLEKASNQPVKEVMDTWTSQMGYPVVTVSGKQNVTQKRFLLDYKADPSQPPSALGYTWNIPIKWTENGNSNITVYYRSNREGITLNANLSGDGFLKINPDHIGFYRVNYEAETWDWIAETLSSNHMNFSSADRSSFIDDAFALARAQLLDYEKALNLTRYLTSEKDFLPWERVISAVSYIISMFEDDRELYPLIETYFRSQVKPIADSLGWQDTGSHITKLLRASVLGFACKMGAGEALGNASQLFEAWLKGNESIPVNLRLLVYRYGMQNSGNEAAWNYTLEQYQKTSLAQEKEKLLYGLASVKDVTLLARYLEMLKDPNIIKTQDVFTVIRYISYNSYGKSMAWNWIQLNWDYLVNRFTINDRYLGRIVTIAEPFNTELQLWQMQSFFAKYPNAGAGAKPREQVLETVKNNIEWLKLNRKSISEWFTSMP
Experimental: Specificity of Apstatin--Apstatin was assayed for its ability to inhibit several other peptidases. […] Unless otherwise indicated, the source of each enzyme activity was a detergent extract of bovine lung prepared as described in (12-13). Activities were determined by a modification of the fluorescent assay described above (indicated by "FLUO") or by HPLC separation and quantitation of reaction products using the method described in (12) (method "HPLC-1") or the method described below (method "HPLC-2"). […]

[4] = system: blood pressure response to Bk; details: rat, cited from earlier work

T1 sequence (O43895 22-674): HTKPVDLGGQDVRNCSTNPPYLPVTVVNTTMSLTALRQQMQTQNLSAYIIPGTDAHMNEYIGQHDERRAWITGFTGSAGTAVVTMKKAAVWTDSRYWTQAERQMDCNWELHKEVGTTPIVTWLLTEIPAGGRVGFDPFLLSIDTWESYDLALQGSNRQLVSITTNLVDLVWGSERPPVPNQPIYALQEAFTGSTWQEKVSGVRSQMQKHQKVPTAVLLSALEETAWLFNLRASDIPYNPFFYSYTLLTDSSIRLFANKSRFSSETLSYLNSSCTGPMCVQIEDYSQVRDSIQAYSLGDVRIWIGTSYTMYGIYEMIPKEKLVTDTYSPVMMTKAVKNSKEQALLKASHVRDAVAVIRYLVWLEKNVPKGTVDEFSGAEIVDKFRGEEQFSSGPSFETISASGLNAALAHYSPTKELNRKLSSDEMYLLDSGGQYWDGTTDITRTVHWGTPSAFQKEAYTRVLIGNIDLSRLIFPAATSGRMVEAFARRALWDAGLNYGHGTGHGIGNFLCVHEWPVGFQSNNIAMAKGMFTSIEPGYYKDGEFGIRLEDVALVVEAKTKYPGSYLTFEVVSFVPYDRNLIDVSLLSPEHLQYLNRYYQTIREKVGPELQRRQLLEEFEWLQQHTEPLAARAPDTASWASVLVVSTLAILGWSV

For `C[C@H](NC(=O)[C@@H]1CCCN1C(=O)[C@@H]1CCCN1C(=O)[C@@H](O)[C@H](N)Cc1ccccc1)C(N)=O` [apstatin, N-[(2S, 3R)-3-amino-2-hydroxy-4-phenylbutanoyl]-L-prolyl-L-prolyl-Lalaninamide], the type of inhibition ([1]; human lung aminopeptidase P) was “linear mixed-type”, the “α (αKi = equilibrium constant for enzyme-inhibitor binding at infinite substrate concentration)” value ([1]; human lung, partially purified membrane-bound form) was 11 and the “dependence of inhibition on Mn+2” value [2] was “not dependent on the presence of Mn^+2”. The reversibility of inhibition ([2]; 100-fold dilution of a preincubated enzyme-apstatin mixture) was “indicating reversibility”, the “effect of preincubation on degree of inhibition (time-dependent or slow-tight binding inhibition)” value ([2]; preincubation of rat aminopeptidase P for up to 2 hr. at 4° C. before addition of substrate) was “did not increase the degree of inhibition” and the type of inhibition ([2]; rat lung aminopeptidase P) was “linear mixed-type”. For the same molecule, the “α (αKi = equilibrium constant for enzyme-inhibitor binding at infinite substrate concentration)” value ([2]; rat lung, purified membrane-bound form) was 5.1, the Ki ([2]; rat lung, purified membrane-bound form, substrate Arg-Pro-Pro, 0.1 M Hepes pH 8.0, 39° C.) was 2.6 µM and the IC50 [3] was greater than 800 µM. For the same molecule, the “effect on blood pressure decrease caused by intravenous administration of Bk” value ([4]; apstatin alone) was “significantly potentiate the magnitude as well as the duration” and the “effect on blood pressure decrease caused by intravenous administration of Bk” value ([4]; apstatin plus lisinopril versus lisinopril alone) was “more effective in this regard than lisinopril alone”.
